Measured values taken from patent publication US8933070B2, “Methods of targeting PTEN mutant diseases and compositions therefor” (University Health Network, priority 2010, dated 2015).
Several values for one entry are separate records, joined by “and”; a condition that tells them apart may be missing. Equal entries are not always repeated.

How the values were obtained:
human PLK4 = target: T1, human PLK4 (Homo sapiens, UniProt O00444); assay: PLK4 inhibition assay (indirect ELISA); assay type: biochemical
T1 construct: amino terminal GST fusion of residues 1-391 of human PLK4; made in house; host or cells: E. coli
T1 sequence (O00444 1-391): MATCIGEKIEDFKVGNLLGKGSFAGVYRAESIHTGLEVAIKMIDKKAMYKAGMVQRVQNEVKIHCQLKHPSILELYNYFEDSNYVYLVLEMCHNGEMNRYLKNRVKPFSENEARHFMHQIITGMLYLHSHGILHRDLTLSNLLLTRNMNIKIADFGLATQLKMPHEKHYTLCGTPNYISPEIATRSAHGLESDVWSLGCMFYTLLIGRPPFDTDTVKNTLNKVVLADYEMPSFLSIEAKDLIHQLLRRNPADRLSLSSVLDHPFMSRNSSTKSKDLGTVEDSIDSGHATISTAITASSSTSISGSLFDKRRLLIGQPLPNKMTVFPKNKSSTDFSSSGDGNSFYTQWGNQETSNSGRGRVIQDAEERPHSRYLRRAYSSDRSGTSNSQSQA
Protocol: The protein was purified from clarified cell extracts after induction at 15° C. overnight using glutathione sepharose, gel permeation chromatography, and ion exchange (Resource Q). The resulting protein was dephosphorylated with lambda phosphatase (NEB cat# P0753), and resolved from the phosphatase using gluthione sepharose. The dephosphorylated GST-PLK4 was stored in aliquots at −80° C. until use.
PLK4 activity was measured using an indirect ELISA detection system. […] The colourimetric reaction was allowed to continue for 5 minutes, followed by addition of stop solution (0.5 N sulphuric acid), and quantified by detection at 450 nm with either a monochromatic or filter based plate reader (Molecular Devices M5 or Beckman DTX880, respectively).
Compounds were pre-incubated in the presence of enzyme for 15 minutes prior to addition of ATP and the activity remaining quantified using the above described activity assay. […] The IC50 value was determined using a non-linear 4 point logistic curve fit (XLfit4, IDBS) with the formula; (A+(B/(1+((x/C)^D)))), where A=background value, B=range, C=inflection point, D=curve fit parameter.

[1] = test system: HCT116 p53 wild-type cells
Protocol: (§1) Breast cancer cells were seeded at various concentrations, ranging from 1×10^5 to 2.5×10^5 per well according to cell growth rate, into 6-well plates 24 hours before siRNA and/or compound treatment. Each 10 mM stock solution in 100% DMSO of the compounds was diluted with Opti-MEM I Reduced-Serum Medium (Invitrogen, Canada) and added to the cells to the stated final concentrations. Control cells received 0.001% DMSO alone. Where indicated, 40 nM PTEN siRNAs (siPTEN) (QIAGEN, Canada; sense sequence: 5′-[…]-3′) or 40 nM control siRNA (siCTRL) (QIAGEN, Canada) were transfected into cells using Lipofectamine 2000 according to the manufacturer's protocol (Invitrogen, Canada). Prior to analysis, cells were trypsinized, washed in 1× phosphate-buffered saline (PBS) and centrifuged. […] All samples were read in a FACSCalibur flow cytometer (Becton, Dickinson and Company), and data analyzed using FloJo software (Tree Star, Inc.).
(§2) To explore if PTEN status may be a contributing factor in determining if PLK4 inhibitor treatment induces a cell death response in cancer cells, a test of whether reducing the levels of endogenous PTEN would sensitize HCT116 cells (either p53 wild-type or negative) to PLK4 compound-induced death (FIG. 7) was performed. […] After two days of inhibitor treatment, the percentage of sub-G1 cells was measured by cell cycle analysis.

[2] = test system: HCT116 p53 negative cells
Protocol: as §1, §2

[3] = test system: HCT116 p53^−/− colon cancer cell line; assay: Cell growth inhibition, SRB assay, extended panel; assay type: cell-based; settings: Homo sapiens, HCT-116, read-out: GI50 Range HCT116 p53^−/−
Protocol: (§3) Breast cancer cells (MCF-7, MDA-MB-468 and HCC1954), colon cancer cells (SW620) and lung cancer cells (A549), together with human mammary epithelial primary cells (HMEC) were seeded (1000 to 4000 per 80 μl per well depending on the cell growth rate) into 96-well plates 24 hours before compound overlay. Compounds were prepared as 10 mM stock solutions in 100% DMSO which were diluted with DMEM (Dulbecco's Modified Eagle's Medium) cell growth Medium (Invitrogen, Canada) containing 10% FBS (Fetal Bovine Serum) to concentrations ranging from 50 nM to 250 μM. Aliquots (20 μl) from each concentration were overlaid to 80 μl of the pre-seeded cells in the 96-plates to make final concentrations of 10 nM to 50 μM. The cells were cultured for 5 days before the Sulforhodamine B (SRB) assay was performed to determine the compound's cell growth inhibition activity.
(§4) Sulforhodamine B (Sigma, Canada) is a water-soluble dye that binds to the basic amino acids of cellular proteins. Thus, colorimetric measurement of the bound dye provides an estimate of the total protein mass that is related to the cell number. The cells are fixed in situ by gently aspirating off the culture media and adding 50 μl ice cold 10% Trichloroacetic Acid (TCA) per well and incubated at 4° C. for 30-60 min. The plates are washed with water five times and allowed to air dry for 5 min. Addition of 50 μl 0.4% (w/v) SRB solution in 1% (v/v) acetic acid to each well and incubatation for […] at RT completes the staining reaction. Following staining, plates are washed four times with 1% acetic acid to remove unbound dye and then allowed to air dry for 5 min. The stain is solubilized with 100 μl of 10 mM Tris pH 10.5 per well. Absorbance is read at 570 nm.
(§5) The percentage (%) of relative growth inhibition was calculated by comparing to DMSO-treated only cells (100%). GI50's were determined for compounds with cytotoxic activity. The GI50 was calculated using GraphPad PRISM software (GraphPad Software, Inc., USA).
(§6) In addition to the cell lines tested as described above, selected compounds have been assayed against an extended panel. These include: breast cancer cell lines (T-47D, MDA-MB-231, Hs578T, 8T-474, SKBr-3 and HCC1954), a lung cancer cell line (H358), brain cancer cell lines (A172, Hs683 and SK-N-SH), colon cancer cell lines (Colo 205, HCT-15, HCT116 p53^+/+ and HCT116 p53^−/−), ovarian cancer cell lines (OVCAR-3, SK-OV-3 and SW626), a melanoma cell line (518A2), a prostate cancer cell line (PC-3) and an immortalized breast cell line (184A1). The SRB assay described above was used to assay test compounds against the extended panel (Table 6).

[4] = test system: HCT116 p53^+/+ colon cancer cell line; assay: Cell growth inhibition, SRB assay, extended panel; assay type: cell-based; settings: Homo sapiens, HCT-116, read-out: GI50 Range HCT116 p53^+/+
Protocol: as §3, §4, §5, §6

COc1ccc2c(c1)[C@@]1(C[C@@H]1c1ccc3c(-c4ccc(N5CCN(C)CC5)nc4)n[nH]c3c1)C(=O)N2 (racemic) [Compound 2]
IC50 (human PLK4): < 5 µM
percentage of sub-G1 cells [1]: 7.1% and 15.9%
percentage of sub-G1 cells [2]: 5.4% and 10.3%

COc1ccc2c(c1)/C(=C\c1ccc3c(/C=C/c4ccc(N5CCN(C)CC5)nc4)n[nH]c3c1)C(=O)N2 [Compound 3]
GI50 [3]: < 5 µM
GI50 [4]: < 5 µM
